Among the data in patent publication US20230146675A1, “PYRIMIDO[5,4-d]PYRIMIDINE DERIVATIVES AS ENT INHIBITORS FOR THE TREATMENT OF CANCERS, AND COMBINATION THEREOF WITH ADENOSINE RECEPTOR ANTAGONISTS” (ITEOS BELGIUM SA, priority 2020, published 2023) are IC50 values, retold here.

pIC50: −log10 of the molar value.

The target in this experiment is T1, human ENT1 (Homo sapiens, UniProt Q99808).
T1 sequence (Q99808 1-456): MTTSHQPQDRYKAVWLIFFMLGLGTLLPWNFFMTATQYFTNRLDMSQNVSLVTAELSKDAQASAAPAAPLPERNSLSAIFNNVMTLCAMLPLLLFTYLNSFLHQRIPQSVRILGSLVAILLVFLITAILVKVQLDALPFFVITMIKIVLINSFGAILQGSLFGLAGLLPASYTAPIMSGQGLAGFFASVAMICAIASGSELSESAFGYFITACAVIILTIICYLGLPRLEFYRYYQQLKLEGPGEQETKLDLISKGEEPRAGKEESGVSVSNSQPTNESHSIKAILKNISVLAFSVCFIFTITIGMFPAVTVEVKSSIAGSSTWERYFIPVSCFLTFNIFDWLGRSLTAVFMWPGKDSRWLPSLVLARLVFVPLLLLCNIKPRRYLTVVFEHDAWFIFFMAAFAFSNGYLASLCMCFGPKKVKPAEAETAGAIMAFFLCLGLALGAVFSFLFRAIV
Briefly: ENT1 binding assay (competition with Sahenta-DY647 on JAR cells). As to conditions: binned IC50. Details: JAR cells expressing ENT1 were bought from ATCC; host or cells: JAR cells. In short, it runs like this:
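JAR cells were incubated with test compounds and the fluorescent ligand Sahenta-DY647 in competition. Plates were washed twice by centrifugation (4 min, 400 rcf, 4 °C). Binding potency was derived from the final fluorescence.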
One may read the pIC50 as the negative decadic logarithm of the IC50, by convention in mol/L. Consider `COCCN(CCOC)c1nc(N2CCN(c3ncn(C)n3)CC2)c2nc(N(CCOC)CCOC)nc(N(C)Cc3cccc(C#N)c3)c2n1` [Compound 244, 3-(((2,6-bis(bis(2-methoxyethyl)amino)-8-(4-(1-methyl-1H-1,2,4-triazol-3-yl)piperazin-1-yl)pyrimido[5,4-d]pyrimidin-4-yl)(methyl)amino)methyl)benzonitrile], for which the pIC50 is 6.30 to 7.00.
To `COCCN(CCOC)c1nc(N2CCN(c3ncn(C)n3)CC2)c2nc(N(CCOC)CCOC)nc(N(C)Cc3ccc(F)c(C#N)c3)c2n1` [Compound 245, 5-(((2,6-bis(bis(2-methoxyethyl)amino)-8-(4-(1-methyl-1H-1,2,4-triazol-3-yl)piperazin-1-yl)pyrimido[5,4-d]pyrimidin-4-yl)(methyl)amino)methyl)-2-fluorobenzonitrile] belongs 6.00 to 6.30; to `COCCN(CCOC)c1nc(N2CCN(c3ncn(C)n3)CC2)c2nc(N(CCOC)CCOC)nc(N(C)Cc3cccc(S(C)(=O)=O)c3)c2n1` [Compound 246, N2,N2,N6,N6-tetrakis(2-methoxyethyl)-N4-methyl-8-(4-(1-methyl-1H-1,2,4-triazol-3-yl)piperazin-1-yl)-N4-(3-(methylsulfonyl)benzyl)pyrimido[5,4-d]pyrimidine-2,4,6-triamine], 6.00 to 6.30.
To `COCCN(CCOC)c1nc(N2CCN(c3ncn(C)n3)CC2)c2nc(N(CCOC)CCOC)nc(N(C)Cc3ccc(F)c(F)c3)c2n1` [Compound 247, N4-(3,4-difluorobenzyl)-N2,N2,N6,N6-tetrakis(2-methoxyethyl)-N4-methyl-8-(4-(1-methyl-1H-1,2,4-triazol-3-yl)piperazin-1-yl)pyrimido[5,4-d]pyrimidine-2,4,6-triamine] belongs 6.30 to 7.00; to `COCCN(CCOC)c1nc(N2CCN(c3ncn(C)n3)CC2)c2nc(N(CCOC)CCOC)nc(N(C)Cc3cccc(S(N)(=O)=O)c3)c2n1` [Compound 248, 3-(((2,6-bis(bis(2-methoxyethyl)amino)-8-(4-(1-methyl-1H-1,2,4-triazol-3-yl)piperazin-1-yl)pyrimido[5,4-d]pyrimidin-4-yl)(methyl)amino)methyl)benzenesulfonamide], 6.30 to 7.00.
The figure for `COCCN(CCOC)c1nc(N2CCN(c3ncn(C)n3)CC2)c2nc(N(CCOC)CCOC)nc(N(C)Cc3cccc(C(N)=O)c3)c2n1` [Compound 249, 3-(((2,6-bis(bis(2-methoxyethyl)amino)-8-(4-(1-methyl-1H-1,2,4-triazol-3-yl)piperazin-1-yl)pyrimido[5,4-d]pyrimidin-4-yl)(methyl)amino)methyl)benzamide] is 6.30 to 7.00.
`COCCN(CCOC)c1nc(N2CCn3cncc3C2)c2nc(N(CCOC)CCOC)nc(N3CCN(C)C(=O)C3)c2n1` [Compound 250, 4-(2,6-bis(bis(2-methoxyethyl)amino)-8-(5,6-dihydroimidazo[1,5-a]pyrazin-7(8H)-yl)pyrimido[5,4-d]pyrimidin-4-yl)-1-methylpiperazin-2-one] gave a pIC50 of 6.30 to 7.00.
The figure for `COCCN(CCOC)c1nc(N2CCn3nncc3C2)c2nc(N(CCOC)CCOC)nc(N3CCN(C)C(=O)C3)c2n1` [Compound 251, 4-(2,6-bis(bis(2-methoxyethyl)amino)-8-(6,7-dihydro-[1,2,3]triazolo[1,5-a]pyrazin-5(4H)-yl)pyrimido[5,4-d]pyrimidin-4-yl)-1-methylpiperazin-2-one] is 6.30 to 7.00; for `COCCN(CCOC)c1nc(N2CCc3nn(C)cc3C2)c2nc(N(CCOC)CCOC)nc(N3CCN(C)C(=O)C3)c2n1` [Compound 252, 4-(2,6-bis(bis(2-methoxyethyl)amino)-8-(2-methyl-2,4,6,7-tetrahydro-5H-pyrazolo[4,3-c]pyridin-5-yl)pyrimido[5,4-d]pyrimidin-4-yl)-1-methylpiperazin-2-one] it is > 7.00; for `COCCN(CCOC)c1nc(N2CCc3c(ncn3C)C2)c2nc(N(CCOC)CCOC)nc(N3CCN(C)C(=O)C3)c2n1` [Compound 253, 4-(2,6-bis(bis(2-methoxyethyl)amino)-8-(1-methyl-1,4,6,7-tetrahydro-5H-imidazo[4,5-c]pyridin-5-yl)pyrimido[5,4-d]pyrimidin-4-yl)-1-methylpiperazin-2-one] it is 6.30 to 7.00.
The figure for `COCCN(CCOC)c1nc(N2CCc3nocc3C2)c2nc(N(CCOC)CCOC)nc(N3CCN(C)C(=O)C3)c2n1` [Compound 254, 4-(2,6-bis(bis(2-methoxyethyl)amino)-8-(6,7-dihydroisoxazolo[4,3-c]pyridin-5(4H)-yl)pyrimido[5,4-d]pyrimidin-4-yl)-1-methylpiperazin-2-one] is > 7.00; for `COCCN(CCOC)c1nc(N2CCc3c(cnn3C)C2)c2nc(N(CCOC)CCOC)nc(N3CCN(C)C(=O)C3)c2n1` [Compound 255, 4-(2,6-bis(bis(2-methoxyethyl)amino)-8-(1-methyl-1,4,6,7-tetrahydro-5H-pyrazolo[4,3-c]pyridin-5-yl)pyrimido[5,4-d]pyrimidin-4-yl)-1-methylpiperazin-2-one] it is > 7.00; for `COCCN(CCOC)c1nc(N2CCc3oc(C)nc3C2)c2nc(N(CCOC)CCOC)nc(N3CCN(C)C(=O)C3)c2n1` [Compound 256, 4-(2,6-bis(bis(2-methoxyethyl)amino)-8-(2-methyl-6,7-dihydrooxazolo[4,5-c]pyridin-5(4H)-yl)pyrimido[5,4-d]pyrimidin-4-yl)-1-methylpiperazin-2-one] it is > 7.00.
With `COCCN(CCOC)c1nc(N2CCn3ccnc3C2)c2nc(N(CCOC)CCOC)nc(N3CCN(C)C(=O)C3)c2n1` [Compound 257, 4-(2,6-bis(bis(2-methoxyethyl)amino)-8-(5,6-dihydroimidazo[1,2-a]pyrazin-7(8H)-yl)pyrimido[5,4-d]pyrimidin-4-yl)-1-methylpiperazin-2-one], the pIC50 is > 7.00.
As to `COCCN(CCOC)c1nc(N2CCn3cccc3C2)c2nc(N(CCOC)CCOC)nc(N3CCN(C)C(=O)C3)c2n1` [Compound 258, 4-(2,6-bis(bis(2-methoxyethyl)amino)-8-(3,4-dihydropyrrolo[1,2-a]pyrazin-2(1H)-yl)pyrimido[5,4-d]pyrimidin-4-yl)-1-methylpiperazin-2-one], the pIC50 was > 7.00.
Turning to `COCCN(CCOC)c1nc(N2CCc3cn[nH]c3C2)c2nc(N(CCOC)CCOC)nc(N3CCN(C)C(=O)C3)c2n1` [Compound 259, 4-(2,6-bis(bis(2-methoxyethyl)amino)-8-(1,4,5,7-tetrahydro-6H-pyrazolo[3,4-c]pyridin-6-yl)pyrimido[5,4-d]pyrimidin-4-yl)-1-methylpiperazin-2-one], the pIC50 was > 7.00.
To `COCCN(CCOC)c1nc(N2CCn3nccc3C2)c2nc(N(CCOC)CCOC)nc(N3CCN(C)C(=O)C3)c2n1` [Compound 260, 4-(2,6-bis(bis(2-methoxyethyl)amino)-8-(6,7-dihydropyrazolo[1,5-a]pyrazin-5(4H)-yl)pyrimido[5,4-d]pyrimidin-4-yl)-1-methylpiperazin-2-one] belongs > 7.00.
The figure for `COCCN(CCOC)c1nc(N2CCc3oncc3C2)c2nc(N(CCOC)CCOC)nc(N3CCN(C)C(=O)C3)c2n1` [Compound 261, 4-(2,6-bis(bis(2-methoxyethyl)amino)-8-(6,7-dihydroisoxazolo[4,5-c]pyridin-5(4H)-yl)pyrimido[5,4-d]pyrimidin-4-yl)-1-methylpiperazin-2-one] is > 7.00; for `COCCN(CCOC)c1nc(N2CCC(OC)CC2)c2nc(OCc3ccnc(C)c3)nc(N3CCC(OC)CC3)c2n1` [Compound 262, N,N-bis(2-methoxyethyl)-4,8-bis(4-methoxypiperidin-1-yl)-6-((2-methylpyridin-4-yl)methoxy)pyrimido[5,4-d]pyrimidin-2-amine] it is 6.30 to 7.00; for `COCCN(CCOC)c1nc(N2CCC(OC)CC2)c2nc(OCc3ccc(C)nc3)nc(N3CCC(OC)CC3)c2n1` [Compound 263, N,N-bis(2-methoxyethyl)-4,8-bis(4-methoxypiperidin-1-yl)-6-((6-methylpyridin-3-yl)methoxy)pyrimido[5,4-d]pyrimidin-2-amine] it is 6.30 to 7.00.
To `COCCN(CCOC)c1nc(N2CCc3cnn(C)c3C2)c2nc(N(CCOC)CCOC)nc(N3CCN(C)C(=O)C3)c2n1` [Compound 266, 4-(2,6-bis(bis(2-methoxyethyl)amino)-8-(1-methyl-1,4,5,7-tetrahydro-6H-pyrazolo[3,4-c]pyridin-6-yl)pyrimido[5,4-d]pyrimidin-4-yl)-1-methylpiperazin-2-one] belongs > 7.00; to `CCN(CCN1CCCC1)c1nc(N2CCN(C)C(=O)C2)c2nc(N(CCOC)CCOC)nc(N3CCC(OC)CC3)c2n1` [Compound 267, 4-(6-(bis(2-methoxyethyl)amino)-2-(ethyl(2-(pyrrolidin-1-yl)ethyl)amino)-8-(4-methoxypiperidin-1-yl)pyrimido[5,4-d]pyrimidin-4-yl)-1-methylpiperazin-2-one], 6.30 to 7.00.
With `COCCN(Cc1cc(OC)c(OC)c(OC)c1)c1nc(N2CCN(C)C(=O)C2)c2nc(N(CCOC)CCOC)nc(N3CCC(OC)CC3)c2n1` [Compound 268, 4-(6-(bis(2-methoxyethyl)amino)-2-((2-methoxyethyl)(3,4,5-trimethoxybenzyl)amino)-8-(4-methoxypiperidin-1-yl)pyrimido[5,4-d]pyrimidin-4-yl)-1-methylpiperazin-2-one], the pIC50 is > 7.00.
